Results: US9346809B2 (LEO PHARMA A/S, priority 2009, dated 2016)
Like-named read-outs stand apart in the source and are kept apart here.

Key:
Type in all cases: biochemical
[1] = molecular target: T1, JAK3 (catalytic domain, His-tag) (Homo sapiens, UniProt P52333); test: JAK kinase assay (HTRF, phosphorylation of TK substrate-biotin), JAK3; details: ATP at Km (2 μM)
T1 construct: All four purified enzymes contain only the catalytic domain; His (N); purchased Carna Biosciences, Inc; host or cells: baculovirus expression system
T1 sequence (P52333 822-1111 limits assumed): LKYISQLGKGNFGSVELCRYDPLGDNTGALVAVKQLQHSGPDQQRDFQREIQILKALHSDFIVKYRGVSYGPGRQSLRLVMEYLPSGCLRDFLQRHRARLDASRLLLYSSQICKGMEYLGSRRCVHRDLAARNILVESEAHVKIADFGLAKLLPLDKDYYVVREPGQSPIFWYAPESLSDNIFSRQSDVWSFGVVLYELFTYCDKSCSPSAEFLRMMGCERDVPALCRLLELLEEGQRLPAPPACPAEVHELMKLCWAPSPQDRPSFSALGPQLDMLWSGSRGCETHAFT
Summary of the method: (§1)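 HTRF KinEASE TK format; 1 μM biotinylated peptide, Km ATP: 7 μM (JAK1, 10 mM MgCl2, 50 nM SEB), 4 μM (JAK2), 2 μM (JAK3), 13 μM (TYK2, 50 nM SEB); 5 mM MgCl2 for the latter three. RT 20-30 min, 0.75% DMSO final. Overnight detection, EC50.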

[2] = molecular target: T2, TYK2 (aa 871-1187, catalytic domain, GST-tag) (Homo sapiens, UniProt P29597); test: JAK kinase assay (HTRF, phosphorylation of TK substrate-biotin), TYK2; details: ATP at Km (13 μM)
T2 construct: JAK1 (aa 850-1154) and TYK2 (aa 871-1187) are expressed with an N-terminally fused GST-tag; GST (N); purchased Carna Biosciences, Inc; host or cells: baculovirus expression system
T2 sequence (P29597 871-1187): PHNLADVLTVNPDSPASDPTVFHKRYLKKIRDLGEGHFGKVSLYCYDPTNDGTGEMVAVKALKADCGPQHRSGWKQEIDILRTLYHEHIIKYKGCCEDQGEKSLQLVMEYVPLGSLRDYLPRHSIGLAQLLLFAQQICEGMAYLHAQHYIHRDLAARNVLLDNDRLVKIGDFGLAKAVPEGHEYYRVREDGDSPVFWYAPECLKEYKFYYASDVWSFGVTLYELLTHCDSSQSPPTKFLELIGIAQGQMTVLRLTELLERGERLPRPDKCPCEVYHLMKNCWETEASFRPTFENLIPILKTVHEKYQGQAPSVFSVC
Summary of the method: as §1

[3] = molecular target: T3, JAK2 (catalytic domain, His-tag) (Homo sapiens, UniProt O60674); test: JAK kinase assay (HTRF, phosphorylation of TK substrate-biotin), JAK2; details: ATP at Km (4 μM)
T3 construct: All four purified enzymes contain only the catalytic domain; His (N); purchased Carna Biosciences, Inc; host or cells: baculovirus expression system
T3 sequence (O60674 849-1124 limits assumed): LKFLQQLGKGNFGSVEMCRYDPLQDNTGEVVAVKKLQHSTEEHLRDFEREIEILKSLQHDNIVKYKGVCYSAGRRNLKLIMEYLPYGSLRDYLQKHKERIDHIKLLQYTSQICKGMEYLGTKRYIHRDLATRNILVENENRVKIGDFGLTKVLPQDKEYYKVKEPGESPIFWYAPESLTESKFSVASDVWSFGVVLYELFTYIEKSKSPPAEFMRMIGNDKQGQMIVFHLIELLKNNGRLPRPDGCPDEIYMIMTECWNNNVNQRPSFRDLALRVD
Summary of the method: as §1

[4] = molecular target: T4, JAK1 (aa 850-1154, catalytic domain, GST-tag) (Homo sapiens, UniProt P23458); test: JAK kinase assay (HTRF, phosphorylation of TK substrate-biotin), JAK1; details: ATP at Km (7 μM)
T4 construct: JAK1 (aa 850-1154) and TYK2 (aa 871-1187) are expressed with an N-terminally fused GST-tag; GST (N); purchased Carna Biosciences, Inc; host or cells: baculovirus expression system
T4 sequence (P23458 850-1154): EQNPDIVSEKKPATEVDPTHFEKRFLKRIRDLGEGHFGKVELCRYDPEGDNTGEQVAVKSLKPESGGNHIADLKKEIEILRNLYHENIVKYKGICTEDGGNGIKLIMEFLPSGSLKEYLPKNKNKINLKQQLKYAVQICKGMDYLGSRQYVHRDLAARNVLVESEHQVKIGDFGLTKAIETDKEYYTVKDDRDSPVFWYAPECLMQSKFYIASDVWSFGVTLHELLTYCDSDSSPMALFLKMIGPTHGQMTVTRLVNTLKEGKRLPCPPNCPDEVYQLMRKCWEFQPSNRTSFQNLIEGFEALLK
Summary of the method: as §1

[5] = HTRF assay, read-out: JAK3 kinase inhibitory activity (EC50 indicator)
[6] = HTRF assay, read-out: TYK2 kinase inhibitory activity (EC50 indicator)
[7] = HTRF assay, read-out: JAK2 kinase inhibitory activity (EC50 indicator)
[8] = HTRF assay, read-out: JAK1 kinase inhibitory activity (EC50 indicator)
[9] = read-out: JAK3 kinase inhibitory activity (EC50 indicator)
[10] = read-out: TYK2 kinase inhibitory activity (EC50 indicator)
[11] = read-out: JAK2 kinase inhibitory activity (EC50 indicator)
[12] = read-out: JAK1 kinase inhibitory activity (EC50 indicator)
[13] = HTRF assay, read-out: JAK3 kinase inhibitory activity (EC50)
[14] = HTRF assay, read-out: TYK2 kinase inhibitory activity (EC50)
[15] = HTRF assay, read-out: JAK2 kinase inhibitory activity (EC50)
[16] = HTRF assay, read-out: JAK1 kinase inhibitory activity (EC50)

| SMILES | EC50 [1, 5] [nM] | EC50 [2, 6] [nM] | EC50 [3, 7] [nM] | EC50 [4, 8] [nM] | EC50 [1, 9] [nM] | EC50 [2, 10] [nM] | EC50 [3, 11] [nM] | EC50 [4, 12] [nM] | also measured |
| --- | --- | --- | --- | --- | --- | --- | --- | --- | --- |
| N#Cc1csc(C(=O)N2C3CCC2CN(c2ncnc4[nH]ccc24)C3)c1 [Example 199, 5-[3-(7H-Pyrrolo[2,3-d]pyrimidin-4-yl)-3,8-diaza-bicyclo[3.2.1]octane-8-carbonyl]-thiophene-3-carbonitrile] | – | – | – | – | < 100 | 100 to 500 | < 100 | < 100 | – |
| CCN(CC)S(=O)(=O)N1CCN(c2ncnc3[nH]ccc23)CC12CC2 [Example 459, 7-(7H-Pyrrolo[2,3-d]pyrimidin-4-yl)-4,7-diaza-spiro[2.5]octane-4-sulfonic acid diethylamide] | – | – | – | – | – | – | – | – | EC50 [1, 13]: 100 to 500 nM; EC50 [2, 14]: 100 to 500 nM; EC50 [3, 15]: < 100 nM; EC50 [4, 16]: < 100 nM |
| O=C([C@H]1CC[C@H](O)CC1)N1CCN(c2ncnc3[nH]ccc23)CC12CC2 [Example 158, (4-Hydroxy-cyclohexyl)-[7-(7H-pyrrolo[2,3-d]pyrimidin-4-yl)-4,7-diaza-spiro[2.5]oct-4-yl]-methanone] | – | – | – | – | 100 to 500 | > 500 | < 100 | 100 to 500 | – |
| N#Cc1ccc(CC(=O)N2CCN(c3nc(NC(=O)c4ccno4)nc4[nH]ccc34)CC23CC3)cc1 [Example 99, Isoxazole-5-carboxylic acid (4-{4-[2-(4-cyano-phenyl)-acetyl]-4,7-diaza-spiro[2.5]oct-7-yl}-7H-pyrrolo[2,3-d]pyrimidin-2-yl)-amide] | – | – | – | – | > 500 | > 500 | < 100 | 100 to 500 | – |
| O=C(c1cc2ccccc2s1)N1CCN(c2ncnc3[nH]ccc23)CC12CCCC2 [Example 75, Benzo[b]thiophen-2-yl-[9-(7H-pyrrolo[2,3-d]pyrimidin-4-yl)-6,9-diaza-spiro[4.5]dec-6-yl]-methanone] | – | – | – | – | > 500 | > 500 | > 500 | > 500 | – |
| S=C(NC1CCCCC1)N1CCN(c2ncnc3[nH]ccc23)CC12CC2 [Example 437, 7-(7H-Pyrrolo[2,3-d]pyrimidin-4-yl)-4,7-diaza-spiro[2.5]octane-4-carbothioic acid cyclohexylamide] | – | – | – | – | – | – | – | – | EC50 [1, 13]: > 500 nM; EC50 [2, 14]: > 500 nM; EC50 [3, 15]: 100 to 500 nM; EC50 [4, 16]: > 500 nM |
| NS(=O)(=O)c1ccc(/C=C/C(=O)N2CCN(c3ncnc4[nH]ccc34)CC23CC3)cc1 [Example 197, 4-{3-Oxo-3-[7-(7H-pyrrolo[2,3-d]pyrimidin-4-yl)-4,7-diaza-spiro[2.5]oct-4-0]-propenyl}-benzenesulfonamide] | – | – | – | – | < 100 | < 100 | < 100 | < 100 | – |
| N#Cc1cccc(C(=O)N2CCN(c3ccnc4[nH]ccc34)CC23CC3)c1 [Example 227, 3-[7-(1H-Pyrrolo[2,3-b]pyridin-4-yl)-4,7-diaza-spiro[2.5]octane-4-carbonyl]-benzonitrile] | 100 to 500 | > 500 | < 100 | < 100 | – | – | – | – | – |
| N#Cc1ccc(C(F)(F)C(=O)N2CCN(c3ncnc4[nH]ccc34)CC23CC3)cc1 [Example 64, 4-{1,1-Difluoro-2-oxo-2-[7-(7H-pyrrolo[2,3-d]pyrimidin-4-yl)-4,7-diaza-spiro[2.5]oct-4-yl]-ethyl}-benzonitrile] | – | – | – | – | 100 to 500 | > 500 | < 100 | < 100 | – |
| COCC(=S)N1CCN(c2ncnc3[nH]ccc23)CC12CC2 [Example 447, 2-Methoxy-1-[7-(7H-pyrrolo[2,3-d]pyrimidin-4-yl)-4,7-diaza-spiro[2.5]oct-4-yl]-ethanethione] | – | – | – | – | – | – | – | – | EC50 [1, 13]: 100 to 500 nM; EC50 [2, 14]: 100 to 500 nM; EC50 [3, 15]: < 100 nM; EC50 [4, 16]: < 100 nM |
| N#CCc1ccc(C(=O)N2CCN(c3ccnc4[nH]ccc34)CC23CC3)cc1 [Example 230, {4-[7-(1H-Pyrrolo[2,3-b]pyridin-4-yl)-4,7-diaza-spiro[2.5]octane-4-carbonyl]-phenyl}-acetonitrile] | 100 to 500 | > 500 | < 100 | 100 to 500 | – | – | – | – | – |
| COCCCNC(=S)N1[C@@H]2CC[C@H]1CN(c1ncnc3[nH]ccc13)C2 [Example 39, 3-(7H-Pyrrolo[2,3-d]pyrimidin-4-yl)-3,8-diazabicyclo[3.2.1]octane-8-carbothioic acid (3-methoxy-propyl)amide] | – | – | – | – | > 500 | > 500 | 100 to 500 | > 500 | – |
| CCOC(=O)N1[C@@H]2CC[C@H]1CN(c1ncnc3[nH]ccc13)C2 [Example 52, 3-(7H-Pyrrolo[2,3-d]pyrimidin-4-yl)-3,8-diazabicyclo[3.2.1]octane-8-carboxylic acid ethyl ester] | – | – | – | – | 100 to 500 | 100 to 500 | < 100 | 100 to 500 | – |
| NS(=O)(=O)c1ccc(OCCC(=O)N2CCN(c3ncnc4[nH]ccc34)CC23CC3)cc1 [Example 452, 4-{3-Oxo-3-[7-(7H-pyrrolo[2,3-d]pyrimidin-4-yl)-4,7-diaza-spiro[2.5]oct-4-yl]-propoxy}-benzenesulfonamide] | – | – | – | – | – | – | – | – | EC50 [1, 13]: < 100 nM; EC50 [2, 14]: > 500 nM; EC50 [3, 15]: < 100 nM; EC50 [4, 16]: < 100 nM |
| Cc1c(C(=O)N2[C@H]3CC[C@H]2CN(c2ncnc4[nH]ccc24)C3)sc2ccccc12 [Example 245, (3-Methyl-benzo[b]thiophen-2-yl)-[3-(7H-pyrrolo[2,3-d]pyrimidin-4-yl)-3,8-diaza-bicyclo[3.2.1]oct-8-yl]-methanone] | < 100 | > 500 | < 100 | < 100 | – | – | – | – | – |

Further lines, with some results ahead:

| EC50 [1, 5] [nM] | EC50 [2, 6] [nM] | EC50 [3, 7] [nM] | EC50 [4, 8] [nM] | EC50 [1, 9] [nM] | EC50 [2, 10] [nM] | EC50 [3, 11] [nM] | EC50 [4, 12] [nM] | SMILES | also measured |
| --- | --- | --- | --- | --- | --- | --- | --- | --- | --- |
| < 100 | 100 to 500 | < 100 | < 100 | – | – | – | – | O=C(c1ccc2cc[nH]c2c1)N1[C@@H]2CC[C@@H]1CN(c1ncnc3[nH]ccc13)C2 [Example 357, (1H-Indol-6-yl)-[3-(7H-pyrrolo[2,3-d]pyrimidin-4-yl)-3,8-diaza-bicyclo[3.2.1]oct-8-yl]-methanone] | – |
| > 500 | > 500 | > 500 | > 500 | – | – | – | – | N#Cc1ccc(CC(=O)N2C[C@@H]3C[C@H]2CN3c2ncnc3[nH]ccc23)cc1 [Example 278, 4-{2-Oxo-2-[5-(7H-pyrrolo[2,3-d]pyrimidin-4-yl)-2,5-diaza-bicyclo[2.2.1]hept-2-yl]-ethyl}-benzonitrile] | – |
| < 100 | < 100 | < 100 | < 100 | – | – | – | – | NS(=O)(=O)c1ccc(C(=O)N2CCN(c3ncnc4[nH]ccc34)CC23CC3)s1 [Example 405, 5-[7-(7H-Pyrrolo[2,3-d]pyrimidin-4-yl)-4,7-diaza-spiro[2.5]octane-4-carbonyl]-thiophene-2-sulfonic acid amide] | – |
| 100 to 500 | > 500 | 100 to 500 | 100 to 500 | – | – | – | – | N#CCc1ccc(CC(=O)N2CCN(c3nc(N)nc4[nH]ccc34)CC23CC3)cc1 [Example 307, (4-{2-[7-(2-Amino-7H-pyrrolo[2,3-d]pyrimidin-4-yl)-4,7-diaza-spiro[2.5]oct-4-yl]-2-oxo-ethyl}-phenyl)-acetonitrile] | – |
| < 100 | < 100 | < 100 | < 100 | – | – | – | – | O=C(c1cc(O)cs1)N1CCN(c2ncnc3[nH]ccc23)CC12CC2 [Example 385, (4-Hydroxy-thiophen-2-yl)-[7-(7H-pyrrolo[2,3-d]pyrimidin-4-yl)-4,7-diaza-spiro[2.5]oct-4-yl]-methanone] | – |
| 100 to 500 | > 500 | < 100 | < 100 | – | – | – | – | N#Cc1ccc(C(=O)N2CCN(c3nc(N)nc4[nH]ccc34)CC23CC3)cc1 [Example 303, 4-[7-(2-Amino-7H-pyrrolo[2,3-d]pyrimidin-4-yl)-4,7-diaza-spiro[2.5]octane-4-carbonyl]-benzonitrile] | – |
| < 100 | 100 to 500 | < 100 | < 100 | – | – | – | – | CC(C)(C)OC(=O)NCCNS(=O)(=O)c1ccc(C(=O)N2CCN(c3ncnc4[nH]ccc34)CC23CC3)cc1 [Example 428, (2-{4-[7-(7H-Pyrrolo[2,3-d]pyrimidin-4-yl)-4,7-diaza-spiro[2.5]octane-4-carbonyl]-benzenesulfonylamino}-ethyl)-carbamic acid tert-butyl ester] | – |
